Measured values from patent US6861440B2, “DPP IV inhibitors” (Hoffmann-La Roche Inc., priority 2001, dated 2005).

molecular target: T1, human DPP-IV (Homo sapiens, UniProt P27487); assay: DPP-IV activity assay (fluorogenic or colorimetric substrate), IC50 determination; type: biochemical; conditions: natural human DPP-IV from human plasma pool or recombinant human DPP-IV; 37° C., pH 7.8
T1 construct: made in house; host or cells: Pichia pastoris
Procedure: Activity of DPP-IV inhibitors are tested with natural human DPP-IV derived from a human plasma pool or with recombinat human DPP-IV. Human citrate plasma from different donors is pooled, filterted through a 0.2 micron membrane under sterile conditions and aliquots of 1 ml are shock frozen and stored at −120° C. until used. In the calorimetric DPP-IV assay 5 to 10 μl human plasma and in the fluorometric assay 1.0 μl of human plasma in a total assay volume of 100 μl is used as an enzyme source. […] Human DPP-IV is expressed and purified from the cultur medium using conventional column chromatography including size exclusion and anion and cation chromatography. […] In the calorimetric DPP-IV assay 20 ng rec.-h DPP-IV and in the fluorometric assay 2 ng rec-h DPP-IV in a total assay volume of 100 μl is used as an enzyme source.
A 20 mM stock solution in 10% DMF/H2O is stored at −20° C. until use.
A 10 mM stock solution in 10% MeOH/H2O is stored at −20° C. until use.
Fluorescence is detected in a Perkin Elmer Luminescence Spectrometer LS 50B at an excitation wavelength of 400 nm and an emission wavelength of 505 nm continuously every 15 seconds for 10 to 30 minutes. Initial rate constants are calculated by best fit linear regression.
Initial rate constants are calculated by best fit linear regression.
DPP-IV activity assays are performed in 96 well plates at 37° C. in a total assay volume of 100 μl. The assay buffer consists of 50 mM Tris/HCl pH 7.8 containing 0.1 mg/ml BSA and 100 mM NaCl. Test compounds are solved in 100% DMSO, diluted to the desired concentration in 10% DMSO/H2O. The final DMSO concentration in the assay is 1% (v/v). […] Compounds are with (10 minutes at 37° C.) and without preincubation with the enzyme. Enzyme reactions are started with substrate application follwed by immediate mixing.
Kinetic parameters of the enzyme reaction are calculated at at least 5 different substrate concentrations and at least 5 different test compound concentrations.

T1 sequence (P27487 31-766): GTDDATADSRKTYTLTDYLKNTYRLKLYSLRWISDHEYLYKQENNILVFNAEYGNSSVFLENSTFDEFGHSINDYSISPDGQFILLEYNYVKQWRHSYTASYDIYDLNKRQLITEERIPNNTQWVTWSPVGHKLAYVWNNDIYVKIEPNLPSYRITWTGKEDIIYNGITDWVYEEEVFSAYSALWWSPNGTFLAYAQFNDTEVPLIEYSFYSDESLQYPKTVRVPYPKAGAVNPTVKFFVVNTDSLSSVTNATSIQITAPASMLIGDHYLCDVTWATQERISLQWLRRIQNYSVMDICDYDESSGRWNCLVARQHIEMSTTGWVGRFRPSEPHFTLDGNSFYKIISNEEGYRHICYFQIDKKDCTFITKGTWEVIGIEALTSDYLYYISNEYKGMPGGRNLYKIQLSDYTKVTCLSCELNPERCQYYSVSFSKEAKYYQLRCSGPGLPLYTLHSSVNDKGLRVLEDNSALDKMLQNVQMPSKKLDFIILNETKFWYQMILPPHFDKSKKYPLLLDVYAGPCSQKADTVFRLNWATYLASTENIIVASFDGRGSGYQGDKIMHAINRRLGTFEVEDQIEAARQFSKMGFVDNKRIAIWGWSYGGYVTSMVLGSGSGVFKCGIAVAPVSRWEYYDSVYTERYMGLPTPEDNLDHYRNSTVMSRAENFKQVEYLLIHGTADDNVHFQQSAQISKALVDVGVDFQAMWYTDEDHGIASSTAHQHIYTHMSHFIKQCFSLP

IC50	SMILES
88 nM	Cc1c(C)n(C[C@H](C)NCC(=O)N2CCC[C@H]2C#N)c2ccccc12 [Example 7, (2S)-1-{[(1S)-2-(2,3-Dimethyl-indol-1-yl)-1-methyl-ethylamino]-acetyl}-pyrrolidine-2-carbonitrile]
128 nM	COc1cc2c(C(=O)C(F)(F)F)cn(C[C@H](C)NCC(=O)N3CCC[C@H]3C#N)c2cc1OC [Example 23, (2S)-1-{[(1S)-2-(5,6-Dimethoxy-3-trifluoroacetyl-indol-1-yl)-1-methyl-ethylamino]-acetyl}-pyrrolidine-2-carbonitrile]
7 nM	CC(C)(CNc1ccc(-c2cccc(C(F)(F)F)c2)cn1)NCC(=O)N1CCC[C@H]1C#N [Example 119, (2S)-1-({1,1-Dimethyl-2-[5-(3-trifluoromethyl-phenyl)-pyridin-2-ylamino]-ethylamino}-acetyl)-pyrrolidine-2-carbonitrile]
1 nM	CC(C)(CNc1cccc(-c2ccccc2)n1)NCC(=O)N1CCC[C@H]1C#N [Example 129, (2S)-1-{[1,1-Dimethyl-2-(6-phenyl-pyridin-2-ylamino)-ethylamino]-acetyl}-pyrrolidine-2-carbonitrile]
1 nM	Cc1cccc(-c2nc(CC(C)(C)NCC(=O)N3CCC[C@H]3C#N)c(C)[nH]2)c1 [Example 188, (2S)-1-{[1,1-Dimethyl-2-(5-methyl-2-m-tolyl-1H-imidazol-4-yl)-ethylamino]-acetyl}-pyrrolidine-2-carbonitrile]
